≈ marks a conversion by molar mass, not a printed value.
Experiments:
Type in all cases: cell-based
S. aureus = test: MIC values, S. aureus (Tables 1-4)
S. pneumo. = test: MIC values, S. pneumo. (Tables 1-4)
E. faecalis = test: MIC values, E. faecalis (Tables 1-4)
H. flu = tested on: H. flu
E. coli = test: MIC values, E. coli (Tables 1-4)

| Structure (SMILES) | MIC S. aureus (S. aureus) [µg/mL] | MIC S. pneumo. (S. pneumo.) [µg/mL] | MIC E. faecalis (E. faecalis) [µg/mL] | MIC H. flu (H. flu) [µg/mL] | MIC E. coli (E. coli) [µg/mL] |
| --- | --- | --- | --- | --- | --- |
| COC1C=COC2(C)Oc3c(C)c(O)c4c(=O)c(c5oc6cc(N7CC8C(N)C8C7)cc(O)c6nc-5c4c3C2=O)NC(=O)C(C)=CC=CC(C)C(O)C(C)C(O)C(C)C(O)C1C (stereo not drawn) [Compound 20] | 2 (≈ 2.34 µM) | 1 (≈ 1.17 µM) | >8 | >8 | >8 |
| CCOC(=O)NC1C2CN(c3cc(O)c4nc5c6c7c8c(C)c(O)c6c(=O)c(c-5oc4c3)NC(=O)C(C)=CC=CC(C)C(O)C(C)C(O)C(C)C(OC(C)=O)C(C)C(OC)C=COC(C)(O8)C7=O)CC21 (stereo not drawn) [Compound 21] | 0.004 (≈ 0.00413 µM) | 0.001 (≈ 0.00103 µM) | 0.12 (≈ 0.124 µM) | 0.5 (≈ 0.516 µM) | 4 (≈ 4.13 µM) |
| CO[C@H]1/C=C/O[C@@]2(C)Oc3c(C)c(O)c4c(=O)c(c5oc6cc(N7CCC(NC(=O)OC(C)C)CC7)cc(O)c6nc-5c4c3C2=O)NC(=O)/C(C)=C\C=C\[C@H](C)[C@H](O)[C@@H](C)[C@@H](O)[C@@H](C)[C@H](OC(C)=O)[C@@H]1C [Compound 22] | 0.015 (≈ 0.0152 µM) | 0.00025 (≈ 0.000254 µM) | 4 (≈ 4.06 µM) | 2 (≈ 2.03 µM) | >8 |
| CO[C@H]1/C=C/O[C@@]2(C)Oc3c(C)c(O)c4c(=O)c(c5oc6cc(N7CCC(NS(=O)(=O)C(F)(F)F)CC7)cc(O)c6nc-5c4c3C2=O)NC(=O)/C(C)=C\C=C\[C@H](C)[C@H](O)[C@@H](C)[C@@H](O)[C@@H](C)[C@H](OC(C)=O)[C@@H]1C [Compound 23] | 0.015 (≈ 0.0145 µM) | 0.00012 (≈ 0.000116 µM) | 4 (≈ 3.88 µM) | 2 (≈ 1.94 µM) | >8 |
| CCCC(=O)NC1CCN(c2cc(O)c3nc4c5c6c7c(C)c(O)c5c(=O)c(c-4oc3c2)NC(=O)/C(C)=C\C=C\[C@H](C)[C@H](O)[C@@H](C)[C@@H](O)[C@@H](C)[C@H](OC(C)=O)[C@H](C)[C@@H](OC)/C=C/O[C@@](C)(O7)C6=O)CC1 [Compound 24] | 0.015 (≈ 0.0155 µM) | 0.001 (≈ 0.00103 µM) | 2 (≈ 2.06 µM) | 2 (≈ 2.06 µM) | >8 |
| CO[C@H]1/C=C/O[C@@]2(C)Oc3c(C)c(O)c4c(=O)c(c5oc6cc(N7CCC(NS(C)(=O)=O)CC7)cc(O)c6nc-5c4c3C2=O)NC(=O)/C(C)=C\C=C\[C@H](C)[C@H](O)[C@@H](C)[C@@H](O)[C@@H](C)[C@H](OC(C)=O)[C@@H]1C [Compound 25] | 0.008 (≈ 0.00819 µM) | 0.001 (≈ 0.00102 µM) | 2 (≈ 2.05 µM) | 2 (≈ 2.05 µM) | >8 |
| CCCNC(=O)NC1CCN(c2cc(O)c3nc4c5c6c7c(C)c(O)c5c(=O)c(c-4oc3c2)NC(=O)/C(C)=C\C=C\[C@H](C)[C@H](O)[C@@H](C)[C@@H](O)[C@@H](C)[C@H](O)[C@H](C)[C@@H](OC)/C=C/O[C@@](C)(O7)C6=O)CC1 [Compound 26] | 0.008 (≈ 0.00849 µM) | 0.00012 (≈ 0.000127 µM) | 2 (≈ 2.12 µM) | 1 (≈ 1.06 µM) | >8 |
| CO[C@H]1/C=C/O[C@@]2(C)Oc3c(C)c(O)c4c(=O)c(c5oc6cc(N7CCC(NS(C)(=O)=O)CC7)cc(O)c6nc-5c4c3C2=O)NC(=O)/C(C)=C\C=C\[C@H](C)[C@H](O)[C@@H](C)[C@@H](O)[C@@H](C)[C@H](O)[C@@H]1C [Compound 27] | 0.015 (≈ 0.016 µM) | 0.001 (≈ 0.00107 µM) | 1 (≈ 1.07 µM) | 0.12 (≈ 0.128 µM) | >8 |
| CCCNC(=O)NC1CCN(c2cc(O)c3nc4c5c6c7c(C)c(O)c5c(=O)c(c-4oc3c2)NC(=O)/C(C)=C\C=C\[C@H](C)[C@H](O)[C@@H](C)[C@@H](O)[C@@H](C)[C@H](OC(C)=O)[C@H](C)[C@@H](OC)/C=C/O[C@@](C)(O7)C6=O)CC1 [Compound 28] | 0.03 (≈ 0.0305 µM) | 0.002 (≈ 0.00203 µM) | 1 (≈ 1.02 µM) | 0.25 (≈ 0.254 µM) | >8 |
